These results are taken from the supplement of paper PMC6045584.

± gives the standard deviation of the averaged measurements.

Compound in assay [1]: COc1cc2nccc(Oc3ccc(NC(=O)NC4CC4)c(Cl)c3)c2cc1C(N)=O [LENVATINIB]
As to the kind of experiment: surviving fraction relative to DMSO-only wells; higher = less growth inhibition. The following applies: exposure time: 5 days. In outline: (§1)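 Each tumour cell line was screened three times, and only lines with replicate Pearson r >0.7 and median Z' >0.3 were kept. Cells in log phase were seeded at 250–500 per well in 384-well plates, left 24 hours, then exposed continuously for five days to inhibitors at 0.5, 1, 5, 10, 50, 100, 500 and 1000 nM. Viability was read as CellTiter-Glo luminescence, with surviving fraction normalised to the median of DMSO-only wells.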

Compound in assay [2]: C[C@@H]1CN(CC(=O)Nc2ccc3c(c2)Cc2cccc(-c4cc(=O)cc(N5CCOCC5)o4)c2S3)C[C@H](C)O1
The assay is described as above. The following applies: exposure time: 5 days. In outline: as §1

Regarding HCC70 BREAST, the surviving fraction worked out at 1.12 ± 0.07 in assay [1] (0.5 nM); 1.136 ± 0.004 in assay [1] (1 nM); 1.08 ± 0.067 in assay [1] (5 nM); 1.15 ± 0.013 in assay [1] (10 nM); 1.27 ± 0.1 in assay [1] (50 nM); 1.13 ± 0.056 in assay [1] (100 nM). The surviving fraction in assay [1] (500 nM) amounted to 1.054 ± 0.0066; in assay [1] (1000 nM), 1.23 ± 0.09; in assay [2] (0.5 nM), 1.03 ± 0.038; in assay [2] (1 nM), 1.07 ± 0.092; in assay [2] (5 nM) it was 1.1 ± 0.1; in assay [2] (10 nM) it was 1.14 ± 0.07. Moreover, the surviving fraction in assay [2] (50 nM) was determined as 1.15 ± 0.044; in assay [2] (100 nM), 1.2 ± 0.037; in assay [2] (500 nM) it was 1.1 ± 0.041; in assay [2] (1000 nM), 1.07 ± 0.02.
Turning to G292 BONE, the surviving fraction in assay [1] (0.5 nM) came out at 0.99 ± 0.053; in assay [1] (1 nM), 0.993 ± 0.054; in assay [1] (5 nM) it was 1.02 ± 0.065; in assay [1] (10 nM), 0.961 ± 0.019; in assay [1] (50 nM), 0.838 ± 0.027; in assay [1] (100 nM) it was 0.725 ± 0.013. In addition, the surviving fraction in assay [1] (500 nM) worked out at 0.33 ± 0.017; in assay [1] (1000 nM), 0.203 ± 0.0041; in assay [2] (0.5 nM) it was 0.9787 ± 0.009; in assay [2] (1 nM), 1.03 ± 0.026; in assay [2] (5 nM), 0.995 ± 0.026; in assay [2] (10 nM), 1 ± 0.046. For the same test system, the surviving fraction in assay [2] (50 nM) stood at 0.994 ± 0.03; in assay [2] (100 nM) it was 0.977 ± 0.034; in assay [2] (500 nM) it was 0.856 ± 0.053; in assay [2] (1000 nM) it was 0.764 ± 0.017.
Regarding HMT3552 BREAST, the surviving fraction in assay [1] (0.5 nM) was determined as 1.03; in assay [1] (1 nM) it was 0.978; in assay [1] (5 nM), 1.01; in assay [1] (10 nM), 0.921; in assay [1] (50 nM) it was 0.975; in assay [1] (100 nM) it was 1.02. Also, the surviving fraction turned out to be 0.944 in assay [1] (500 nM); 0.893 in assay [1] (1000 nM); 0.943 in assay [2] (0.5 nM); 0.938 in assay [2] (1 nM); 0.979 in assay [2] (5 nM); 1.01 in assay [2] (10 nM). For the same test system, the surviving fraction amounted to 0.942 in assay [2] (50 nM), 0.855 in assay [2] (100 nM), 0.824 in assay [2] (500 nM) and 0.739 in assay [2] (1000 nM).
Consider HCC38 BREAST, for which the surviving fraction is 1.03 ± 0.056 in assay [1] (0.5 nM); 1.19 ± 0.23 in assay [1] (1 nM); 1.24 ± 0.24 in assay [1] (5 nM); 1.19 ± 0.091 in assay [1] (10 nM); 1.35 ± 0.052 in assay [1] (50 nM); 1.28 ± 0.054 in assay [1] (100 nM). Besides, the surviving fraction amounted to 1.18 ± 0.091 in assay [1] (500 nM); 1.09 ± 0.17 in assay [1] (1000 nM); 0.973 ± 0.15 in assay [2] (0.5 nM); 0.988 ± 0.11 in assay [2] (1 nM); 1.08 ± 0.19 in assay [2] (5 nM); 1.02 ± 0.17 in assay [2] (10 nM). For the same test system, the surviving fraction is 0.698 ± 0.23 in assay [2] (50 nM), 0.631 ± 0.086 in assay [2] (100 nM), 0.418 ± 0.12 in assay [2] (500 nM) and 0.391 ± 0.06 in assay [2] (1000 nM).
With HMLE3 BREAST, the surviving fraction was found to be 1.03 ± 0.019 in assay [1] (0.5 nM); 0.951 ± 0.054 in assay [1] (1 nM); 1.03 ± 0.052 in assay [1] (5 nM); 1.05 ± 0.09 in assay [1] (10 nM); 0.998 ± 0.12 in assay [1] (50 nM); 0.905 ± 0.096 in assay [1] (100 nM). For the same test system, the surviving fraction in assay [1] (500 nM) was determined as 0.718 ± 0.029; in assay [1] (1000 nM), 0.658 ± 0.047; in assay [2] (0.5 nM), 1 ± 0.041; in assay [2] (1 nM) it was 0.914 ± 0.069; in assay [2] (5 nM), 0.985 ± 0.082; in assay [2] (10 nM), 0.954 ± 0.042. The surviving fraction in assay [2] (50 nM) stood at 1 ± 0.058; in assay [2] (100 nM), 0.949 ± 0.12; in assay [2] (500 nM), 0.918 ± 0.024; in assay [2] (1000 nM), 0.807 ± 0.047.
For the test system HS578T BREAST, the surviving fraction was determined as 0.934 ± 0.11 in assay [1] (0.5 nM); 1.16 ± 0.058 in assay [1] (1 nM); 0.871 ± 0.17 in assay [1] (5 nM); 0.974 ± 0.041 in assay [1] (10 nM); 0.984 ± 0.078 in assay [1] (50 nM); 0.91 ± 0.068 in assay [1] (100 nM). For the same test system, the surviving fraction was 1.01 ± 0.1 in assay [1] (500 nM); 0.871 ± 0.045 in assay [1] (1000 nM); 0.996 ± 0.12 in assay [2] (0.5 nM); 0.965 ± 0.14 in assay [2] (1 nM); 0.861 ± 0.04 in assay [2] (5 nM); 0.883 ± 0.052 in assay [2] (10 nM). In addition, the surviving fraction in assay [2] (50 nM) turned out to be 0.855 ± 0.13; in assay [2] (100 nM), 0.814 ± 0.13; in assay [2] (500 nM), 0.867 ± 0.089; in assay [2] (1000 nM), 0.69 ± 0.042.
